Consider 1 compound from US20040070093A1, “Process for preparing microparticles through phase inversion phenomena” (Brown University Research Foundation, priority 1995, published 2004).

The nature of the data set: in vivo. Conditions: rat, serum, po, 25 mg/kg.

Procedure: Dicumarol containing microspheres were produced as described above in Example 2, subsection 1. Equal doses of dicumarol, spray dried dicumarol and polyanhydride (FA:SA) 20:80 encapsulated dicumarol (25 mg drug/kg body weight) suspended in 1.5 ml maple syrup were fed to catheterized rats (250-350 g). Blood samples were taken at regular intervals and serum was assayed for dicumarol concentrations using a UV spectrophotometric method.

As to `O=c1oc2ccccc2c(O)c1Cc1c(O)c2ccccc2oc1=O` [SPRAY DICUMAROL CONTROL, dicumarol], the AUC turned out to be 232 ± 19.2 µg·h/mL, the highest level (Cmax) was 17900 ± 1220 ng/mL, the Tmax is 9.42 ± 1.36 h and the half-life is 16.2 ± 0.87 h.

Broadly, the AUC is concentration integrated over time. High values mean more exposure, low ones less exposure. By Cmax is commonly meant the highest concentration seen after dosing. As usually defined, the Tmax is the time from dosing to the highest level. The term half-life denotes how long it takes for the measured level to halve.
